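Five concentrations, 48 hours, 96-well plates. The concentration for 50% growth inhibition is given as GI50.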 Active and inactive are the calls of the source. Rule as the data show it: active = GI50 up to about 1.1 µM and inactive = higher.
How the values were obtained:
Assay in all cases: growth of human tumour cells (NCI), 48 h
786-0 = test system: 786-0
A498 = test system: A498
A549 = test system: A549
ACHN = test system: ACHN
CAKI-1 = test system: CAKI-1
CCRF-CEM = test system: CCRF-CEM
COLO 205 = test system: COLO 205
DLD-1 = test system: DLD-1
DMS-114 = test system: DMS-114
DMS-273 = test system: DMS-273
EKVX = test system: EKVX
HCC 2998 = test system: HCC 2998
HCT-116 = test system: HCT-116
HCT-15 = test system: HCT-15
HL-60 = test system: HL-60
HOP-62 = test system: HOP-62
HOP-92 = test system: HOP-92
HT-29 = test system: HT-29
IGROV-1 = test system: IGROV-1
K562 = test system: K562
KM-20L2 = test system: KM-20L2
KM12 = test system: KM12
LOX IMVI = test system: LOX IMVI
LXFL 529 = test system: LXFL 529
M14 = test system: M14
M19-MEL = test system: M19-MEL
MOLT-4 = test system: MOLT-4
Malme-3M = test system: Malme-3M
NCI-H23 = test system: NCI-H23
NCI-H460 = test system: NCI-H460
NCI-H522 = test system: NCI-H522
OVCAR-3 = test system: OVCAR-3
OVCAR-4 = test system: OVCAR-4
OVCAR-5 = test system: OVCAR-5
OVCAR-8 = test system: OVCAR-8
RPMI-8226 = test system: RPMI-8226
RXF 393 = test system: RXF 393
SF-268 = test system: SF-268
SF-295 = test system: SF-295
SK-MEL-28 = test system: SK-MEL-28
SK-MEL-2 = test system: SK-MEL-2
SK-MEL-5 = test system: SK-MEL-5
SK-OV-3 = test system: SK-OV-3
SN12C = test system: SN12C
SNB-19 = test system: SNB-19
SNB-75 = test system: SNB-75
SR = test system: SR
SW-620 = test system: SW-620
TK-10 = test system: TK-10
U-251 = test system: U-251
UACC-257 = test system: UACC-257
UACC-62 = test system: UACC-62
UO-31 = test system: UO-31
XF498 = test system: XF498

Which GI50 (786-0) does the source give for `CSc1nc2[nH]c(=O)c(C)nc2c(=O)[nH]1` here?
The GI50 was > 100 µM (inactive).

What about the GI50 (A498) of the same molecule?
The GI50 was > 100 µM (inactive).

And the GI50 (A549)?
Its GI50 is > 100 µM (inactive).

And the GI50 (ACHN)?
The GI50 was > 100 µM (inactive).

And the GI50 (CAKI-1)?
Its GI50 is > 100 µM (inactive).

And the GI50 (CCRF-CEM)?
The GI50 was > 100 µM (inactive).

And the GI50 (COLO 205)?
Its GI50 is > 100 µM (inactive).

And the GI50 (DLD-1)?
Its GI50 is > 100 µM (inactive).

What about the GI50 (DMS-114) of the same molecule?
The GI50 was > 100 µM (inactive).

What about the GI50 (DMS-273) of the same molecule?
The GI50 was > 100 µM (inactive).

And the GI50 (EKVX)?
The GI50 was > 100 µM (inactive).

What about the GI50 (HCC 2998) of the same molecule?
Its GI50 is > 100 µM (inactive).

What about the GI50 (HCT-116) of the same molecule?
The GI50 was > 100 µM (inactive).

And the GI50 (HCT-15)?
The GI50 was greater than 100 µM.

And the GI50 (HL-60)?
The GI50 was > 100 µM (inactive).

What about the GI50 (HOP-62) of the same molecule?
The GI50 was > 100 µM (inactive).

And the GI50 (HOP-92)?
Its GI50 is > 100 µM (inactive).

What about the GI50 (HT-29) of the same molecule?
The GI50 was > 100 µM (inactive).

And the GI50 (IGROV-1)?
The GI50 was > 100 µM (inactive).

What about the GI50 (K562) of the same molecule?
Its GI50 is > 100 µM (inactive).

What about the GI50 (KM-20L2) of the same molecule?
Its GI50 is > 100 µM (inactive).

What about the GI50 (KM12) of the same molecule?
The GI50 was > 100 µM (inactive).

And the GI50 (LOX IMVI)?
Its GI50 is > 100 µM (inactive).

And the GI50 (LXFL 529)?
The GI50 was > 100 µM (inactive).

And the GI50 (M14)?
Its GI50 is > 100 µM (inactive).

And the GI50 (M19-MEL)?
The GI50 was > 100 µM (inactive).

What about the GI50 (MOLT-4) of the same molecule?
The GI50 was > 100 µM (inactive).

What about the GI50 (Malme-3M) of the same molecule?
Its GI50 is > 100 µM (inactive).

And the GI50 (NCI-H23)?
The GI50 was > 100 µM (inactive).

What about the GI50 (NCI-H460) of the same molecule?
Its GI50 is > 100 µM (inactive).

What about the GI50 (NCI-H522) of the same molecule?
The GI50 was > 100 µM (inactive).

And the GI50 (OVCAR-3)?
Its GI50 is > 100 µM (inactive).

And the GI50 (OVCAR-4)?
Its GI50 is > 100 µM (inactive).

And the GI50 (OVCAR-5)?
The GI50 was > 100 µM (inactive).

What about the GI50 (OVCAR-8) of the same molecule?
The GI50 was > 100 µM (inactive).

And the GI50 (RPMI-8226)?
The GI50 was > 100 µM (inactive).

What about the GI50 (RXF 393) of the same molecule?
Its GI50 is > 100 µM (inactive).

And the GI50 (SF-268)?
The GI50 was > 100 µM (inactive).

What about the GI50 (SF-295) of the same molecule?
Its GI50 is > 100 µM (inactive).

What about the GI50 (SK-MEL-28) of the same molecule?
The GI50 was > 100 µM (inactive).

And the GI50 (SK-MEL-2)?
The GI50 was > 100 µM (inactive).

What about the GI50 (SK-MEL-5) of the same molecule?
The GI50 was > 100 µM (inactive).

What about the GI50 (SK-OV-3) of the same molecule?
Its GI50 is > 100 µM (inactive).

What about the GI50 (SN12C) of the same molecule?
Its GI50 is > 100 µM (inactive).

What about the GI50 (SNB-19) of the same molecule?
The GI50 was > 100 µM (inactive).

And the GI50 (SNB-75)?
The GI50 was > 100 µM (inactive).

And the GI50 (SR)?
The GI50 was > 100 µM (inactive).

And the GI50 (SW-620)?
The GI50 was > 100 µM (inactive).

And the GI50 (TK-10)?
The GI50 was > 100 µM (inactive).

And the GI50 (U-251)?
The GI50 was > 100 µM (inactive).

And the GI50 (UACC-257)?
The GI50 was > 100 µM (inactive).

What about the GI50 (UACC-62) of the same molecule?
The GI50 was > 100 µM (inactive).

And the GI50 (UO-31)?
Its GI50 is > 100 µM (inactive).

What about the GI50 (XF498) of the same molecule?
Its GI50 is > 100 µM (inactive).
